Laboratory results: US7662832B2, “Pyrrolo[2,3-c]pyridine derivatives and processes for the preparation thereof” (priority 2004, dated 2010)
Counter-ions that a name gives are not always drawn.

Biological target: Proton Pump (H^+/K^+-ATPase) (Sus scrofa, UniProt P19156)
Test: Inhibitory effects on proton pump (H^+/K^+-ATPase) activity
Type: biochemical
Conditions: hog gastric vesicles; K^+ stimulated H^+/K^+-ATPase activity; 30 minutes at 37° C.

Sequence of Proton Pump (H^+/K^+-ATPase) (P19156 2-1034 limits assumed): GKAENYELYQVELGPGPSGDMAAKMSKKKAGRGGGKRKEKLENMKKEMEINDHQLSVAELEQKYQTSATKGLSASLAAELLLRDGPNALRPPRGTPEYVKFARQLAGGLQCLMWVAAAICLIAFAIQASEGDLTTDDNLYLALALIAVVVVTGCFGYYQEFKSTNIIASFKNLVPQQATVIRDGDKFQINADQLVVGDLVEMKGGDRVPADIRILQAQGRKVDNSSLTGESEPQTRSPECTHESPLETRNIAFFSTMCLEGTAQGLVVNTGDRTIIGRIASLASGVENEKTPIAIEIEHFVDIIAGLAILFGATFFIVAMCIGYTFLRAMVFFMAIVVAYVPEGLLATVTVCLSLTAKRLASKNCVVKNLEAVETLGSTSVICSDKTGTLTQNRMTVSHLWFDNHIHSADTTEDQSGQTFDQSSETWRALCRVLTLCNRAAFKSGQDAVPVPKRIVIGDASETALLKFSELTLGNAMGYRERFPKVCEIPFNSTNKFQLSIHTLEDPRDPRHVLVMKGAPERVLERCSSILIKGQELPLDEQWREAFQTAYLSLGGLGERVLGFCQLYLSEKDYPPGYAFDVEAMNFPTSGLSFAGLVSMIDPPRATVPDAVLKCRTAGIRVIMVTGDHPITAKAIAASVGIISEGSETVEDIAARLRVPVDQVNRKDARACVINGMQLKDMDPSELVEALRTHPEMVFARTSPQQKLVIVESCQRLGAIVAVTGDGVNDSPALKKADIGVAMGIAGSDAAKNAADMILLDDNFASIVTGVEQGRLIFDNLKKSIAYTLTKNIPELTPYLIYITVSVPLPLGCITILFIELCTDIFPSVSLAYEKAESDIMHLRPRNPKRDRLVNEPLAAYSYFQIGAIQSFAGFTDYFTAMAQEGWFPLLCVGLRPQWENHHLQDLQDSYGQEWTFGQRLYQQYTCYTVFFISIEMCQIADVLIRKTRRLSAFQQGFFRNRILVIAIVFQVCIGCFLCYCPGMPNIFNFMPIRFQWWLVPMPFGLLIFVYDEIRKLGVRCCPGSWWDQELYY
Sequence of Proton Pump (H^+/K^+-ATPase) (P18434 whole entry partner): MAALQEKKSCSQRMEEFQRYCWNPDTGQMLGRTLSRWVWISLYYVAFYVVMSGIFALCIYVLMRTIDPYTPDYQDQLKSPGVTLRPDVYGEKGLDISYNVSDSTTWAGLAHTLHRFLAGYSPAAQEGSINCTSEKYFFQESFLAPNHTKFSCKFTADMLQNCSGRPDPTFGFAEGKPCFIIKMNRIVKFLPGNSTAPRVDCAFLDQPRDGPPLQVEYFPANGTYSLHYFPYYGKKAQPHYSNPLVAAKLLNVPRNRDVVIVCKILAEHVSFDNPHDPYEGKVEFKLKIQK

Compound	IC50 [µM]
COc1ccc(Cn2c(C)c(C)c3ccnc(N(C)Cc4ccc(F)cc4)c32)cc1 [Example 156, 7-[N-(4-fluorobenzyl)-N-methyl]amino-1-(4-methoxybenzyl)-2,3-dimethyl-1H-pyrrolo[2,3-c]pyridine hydrochloride]	0.31
Cc1c(C)n(Cc2cccc(F)c2)c2c(CCc3ccccc3)nccc12 [Example 449, 1-(3-fluorobenzyl)-2,3-dimethyl-7-phenethyl-1H-pyrrolo[2,3-c]pyridine hydrochloride]	0.087
Cc1c(C)n(Cc2ccncc2)c2c(N3CCc4ccccc4C3)nccc12 [Example 518, 1-(pyridin-4-ylmethyl)-7-(1,2,3,4-tetrahydroisoquinolin-2-yl)-2,3-dimethyl-1H-pyrrolo[2,3-c]pyridine hydrochloride]	0.179
CCn1c(C)c(C)c2ccnc(N3CCc4ccccc4C3)c21 [Example 481, 1-ethyl-7-(1,2,3,4-tetrahydroisoquinolin-2-yl)-2,3-dimethyl-1H-pyrrolo[2,3-c]pyridine hydrochloride]	0.059
CCCn1c(C)c(C)c2ccnc(N(C)Cc3ccc(F)cc3)c21 [Example 150, 7-[N-(4-fluorobenzyl)-N-methyl]amino-2,3-dimethyl-1-propyl-1H-pyrrolo[2,3-c]pyridine hydrochloride]	0.34
COCCn1c(C)c(C)c2ccnc(N3CCc4cc(F)ccc4C3C)c21 (stereo not drawn) [Example 564, 6-fluoro-2-[1-(2-methoxyethyl)-2,3-dimethyl-1H-pyrrolo[2,3-c]pyridin-7-yl]-1-methyl-1,2,3,4-tetrahydroisoquinoline hydrochloride]	0.082
CSc1ccc(-c2nccc3c(C)c(C)n(Cc4cccc(F)c4)c23)cc1 [Example 272, 2,3-dimethyl-1-(3-fluorobenzyl)-7-(4-methylsulfanylphenyl)-1H-pyrrolo[2,3-c]pyridine hydrochloride]	0.22
Cc1c(C)n(Cc2cccc(Cl)c2)c2c(N3CCc4ccccc4C3)nc(CN3CCN(C)CC3)cc12 [Example 875, 2-[1-(3-chlorobenzyl)-2,3-dimethyl-5-(4-methylpiperazin-1-ylmethyl)-1H-pyrrolo[2,3-c]pyridin-7-yl]-1,2,3,4-tetrahydroisoquinoline hydrochloride]	0.258
COc1cccc(Cn2c(C)c(C)c3ccnc(COc4ccc(F)cc4)c32)c1 [Example 4, 7-(4-fluorophenoxymethyl)-1-(3-methoxybenzyl)-2,3-dimethyl-1H-pyrrolo[2,3-c]pyridine hydrochloride]	0.15
Cc1ccccc1CNc1nccc2c(C)c(C)n(Cc3ccc(F)cc3)c12 [Example 219, 1-(4-fluorobenzyl)-2,3-dimethyl-7-(2-methylbenzylamino)-1H-pyrrolo[2,3-c]pyridine hydrochloride]	1.24
Cc1c(C)n(Cc2cccc(F)c2)c2c(N3CCc4ccccc4C3)nc(C(=O)N3CCOCC3)cc12 [Example 779, [7-(3,4-dihydro-1H-isoquinolin-2-yl)-1-(3-fluorobenzyl)-2,3-dimethyl-1H-pyrrolo[2,3-c]pyridin-5-yl]-(morpholin-4-yl)-methanone hydrochloride]	0.062
Cc1c(C)n(Cc2ccc(F)cc2)c2c(N(C)Cc3ccc(F)cc3)nccc12 [Example 155, 1-(4-fluorobenzyl)-7-[N-(4-fluorobenzyl)-N-methyl]amino-2,3-dimethyl-1H-pyrrolo[2,3-c]pyridine hydrochloride]	0.4
COc1cccc(Cn2c(C)c(C)c3cc(N)nc(N4CCc5ccccc5C4)c32)c1 [Example 848, 7-(3,4-dihydro-1H-isoquinolin-2-yl)-1-(3-methoxybenzyl)-2,3-dimethyl-1H-pyrrolo[2,3-c]pyridin-5-amine hydrochloride]	0.029
CCn1c(C)c(C)c2cc(C(=O)N3CCC(CCO)CC3)nc(N3CCc4ccccc4C3)c21 [Example 804, [7-(3,4-dihydro-1H-isoquinolin-2-yl)-1-ethyl-2,3-dimethyl-1H-pyrrolo[2,3-c]pyridin-5-yl]-[4-(2-hydroxyethyl)-piperidin-1-yl]-methanone hydrochloride]	0.036
CC(C)=CCn1c(C)c(C)c2ccnc(N3CCc4ccccc4C3)c21 [Example 475, 1-(3-methylbut-2-enyl)-7-(1,2,3,4-tetrahydroisoquinolin-2-yl)-2,3-dimethyl-1H-pyrrolo[2,3-c]pyridine hydrochloride]	0.3
Cc1c(C)n(Cc2cccc(F)c2)c2c(N3CCc4ccccc4C3)nc(CO)cc12 [Example 851, 7-(3,4-dihydro-1H-isoquinolin-2-yl)-1-(3-fluorobenzyl)-2,3-dimethyl-1H-pyrrolo[2,3-c]pyridin-5-yl]-methanol hydrochloride]	0.032

More lines, in order of falling IC50, values ahead:

IC50 [µM]	Compound
0.47	CCC1c2ccccc2CCN1c1nccc2c(C)c(C)n(C)c12 (stereo not drawn) [Example 575, 1-ethyl-2-(1,2,3-trimethyl-1H-pyrrolo[2,3-c]pyridin-7-yl)-1,2,3,4-tetrahydroisoquinoline hydrochloride]
0.439	C#CCn1c(C)c(C)c2cc(Cl)nc(N3CCc4ccccc4C3)c21 [Example 659, 2-[5-chloro-2,3-dimethyl-1-(prop-2-ynyl)-1H-pyrrolo[2,3-c]pyridin-7-yl]-1,2,3,4-tetrahydroisoquinoline]
0.3	COCCn1c(C)c(C)c2ccnc(N(C)Cc3ccc(F)cc3)c21 [Example 143, 7-[N-(4-fluorobenzyl)-N-methyl]amino-1-(2-methoxyethyl)-2,3-dimethyl-1H-pyrrolo[2,3-c]pyridine hydrochloride]
0.292	Cc1ccc(-c2nccc3c(C)c(C)n(Cc4ccccc4)c23)cc1 [Example 281, 1-benzyl-2,3-dimethyl-7-(p-tolyl)-1H-pyrrolo[2,3-c]pyridine hydrochloride]
0.284	Cc1c(CO)c2ccnc(-c3ccc4ccccc4c3)c2n1Cc1cccc(F)c1 [Example 411, 1-(3-fluorobenzyl)-3-hydroxymethyl-2-methyl-7-(naphthalen-2-yl)-1H-pyrrolo[2,3-c]pyridine hydrochloride]
0.282	CCn1nnnc1-c1cc2c(C)c(C)n(Cc3cccc(Cl)c3)c2c(N2CCc3ccccc3C2)n1 [Example 854, 2-[1-(3-chlorobenzyl)-2,3-dimethyl-5-(1-ethyl-1H-tetrazol-5-yl)-1H-pyrrolo[2,3-c]pyridin-7-yl]-1,2,3,4-tetrahydroisoquinoline]
0.267	Cc1c(C)n(CC2CC2)c2c(N3CCc4ccccc4C3)nc(C(=O)O)cc12 [Example 740, 1-cyclopropylmethyl-7-(3,4-dihydro-1H-isoquinolin-2-yl)-2,3-dimethyl-1H-pyrrolo[2,3-c]pyridin-5-carboxylic acid]
0.21	Cc1ccc(CNc2nccc3c(C)c(C)n(CC4CC4)c23)cc1 [Example 204, 1-cyclopropylmethyl-2,3-dimethyl-7-(4-methylbenzylamino)-1H-pyrrolo[2,3-c]pyridine hydrochloride]
0.15	Cc1c(C)n(Cc2cccc(F)c2)c2c(N3CCc4ccc(F)cc4C3C)nccc12 (stereo not drawn) [Example 542, 7-fluoro-2-[1-(3-fluorobenzyl)-2,3-dimethyl-1H-pyrrolo[2,3-c]pyridin-7-yl]-1-methyl-1,2,3,4-tetrahydroisoquinoline hydrochloride]
0.138	CCCn1c(C)c(C)c2ccnc(NCc3ccccc3Cl)c21 [Example 231, 7-(2-chlorobenzylamino)-2,3-dimethyl-1-propyl-1H-pyrrolo[2,3-c]pyridine hydrochloride]
0.122	Cc1[nH]c2c(N3CCc4ccccc4C3)nc(C(=O)N3CCCCC3)cc2c1C [Example 791, [7-(3,4-dihydro-1H-isoquinolin-2-yl)-2,3-dimethyl-1H-pyrrolo[2,3-c]pyridin-5-yl]-(piperidin-1-yl)-methanone hydrochloride]
0.113	CCCn1c(C)c(C)c2ccnc(-c3ccc4ccccc4c3)c21 [Example 407, 2,3-dimethyl-7-(naphthalen-2-yl)-1-propyl-1H-pyrrolo[2,3-c]pyridine hydrochloride]
0.09	C=Cc1ccc(-c2nccc3c(C)c(C)n(Cc4cccc(F)c4)c23)cc1 [Example 243, 1-(3-fluorobenzyl)-2,3-dimethyl-7-(4-vinylphenyl)-1H-pyrrolo[2,3-c]pyridine hydrochloride]
0.09	C=Cc1ccc(-c2nccc3c(C)c(C)n(CCOC)c23)cc1 [Example 247, 1-(2-methoxyethyl)-2,3-dimethyl-7-(4-vinylphenyl)-1H-pyrrolo[2,3-c]pyridine hydrochloride]
0.089	C#CCn1c(C)c(C)c2ccnc(-c3ccc4ccccc4c3)c21 [Example 408, 2,3-dimethyl-7-(naphthalen-2-yl)-1-(prop-2-ynyl)-1H-pyrrolo[2,3-c]pyridine hydrochloride]
0.066	Cc1c(C)n(CC(C)C)c2c(NCc3ccc(Cl)cc3)nccc12 [Example 209, 7-(4-chlorobenzylamino)-1-isobutyl-2,3-dimethyl-1H-pyrrolo[2,3-c]pyridine hydrochloride]
0.065	COCCn1c(C)c(C)c2ccnc(N3CCc4ccccc4C3)c21 [Example 499, 1-(2-methoxyethyl)-7-(1,2,3,4-tetrahydroisoquinolin-2-yl)-2,3-dimethyl-1H-pyrrolo[2,3-c]pyridine hydrochloride]
0.035	CCn1c(C)c(C)c2cc(C(=O)N3CCCC3)nc(N3CCc4ccccc4C3)c21 [Example 803, [7-(3,4-dihydro-1H-isoquinolin-2-yl)-1-ethyl-2,3-dimethyl-1H-pyrrolo[2,3-c]pyridin-5-yl]-(pyrrolidin-1-yl)-methanone hydrochloride]
0.031	Cc1cccc(Cn2c(C)c(C)c3cc(C(=O)N4CCNCC4)nc(N4CCc5ccccc5C4)c32)c1 [Example 814, [7-(3,4-dihydro-1H-isoquinolin-2-yl)-2,3-dimethyl-1-(3-methylbenzyl)-1H-pyrrolo[2,3-c]pyridin-5-yl]-(piperazin-1-yl)-methanone hydrochloride]
0.02	Cc1c(C)n(Cc2ccccn2)c2c(N3CCc4ccccc4C3)nccc12 [Example 517, 1-(pyridin-2-ylmethyl)-7-(1,2,3,4-tetrahydroisoquinolin-2-yl)-2,3-dimethyl-1H-pyrrolo[2,3-c]pyridine hydrochloride]
